Tested on: Digitaria sanguinalis (DIGSA)
Assay: Herbicidal post-emergence action, DIGSA
Format: in vivo
Settings: 1280 g/ha, assessed visually after ca. 3 weeks vs untreated controls (Table B12)
From the text: Seeds of mono- and dicotyledonous weed plants were sown in plastic pots (double sowings with one species of mono- and one species of dicotyledonous weed plants per pot), in sandy loam, covered with soil and grown under controlled growth conditions. 2 to 3 weeks after sowing, the test plants were sprayed in the single-leaf stage. The compounds according to the invention, formulated in the form of wettable powders (WP) or as emulsifiable concentrates (EC), were sprayed onto the green plant parts as an aqueous suspension or as an emulsion, with the addition of 0.5% of an additive, at an application rate of 600 litres of water per hectare (converted). The test plants were placed in the greenhouse for ca. 3 weeks under optimum growth conditions, and then the effect of the preparations is assessed visually in comparison with untreated controls (herbicidal effect in percent (%): 100% effect=plants have died, 0% effect=as control plants).

O=C(Nc1ncns1)c1c(C2CC2)ccnc1F [Example I-005]
herbicidal effect in percent, DIGSA: 100%

From US20240352010A1, “SUBSTITUTED 1,2,4-THIADIAZOLYL NICOTINAMIDES, SALTS OR N-OXIDES THEREOF AND THEIR USE AS HERBICIDALLY ACTIVE SUBSTANCES” (BayerAktiengesellschaft, priority 2021, published 2024)
